Key:
[1] = system: SW480, human primary colon cancer cell line; assay: MTT assay, cytotoxicity in SW480; format: cell-based; details: for IC50: Homo sapiens, SW480, MTT, 72 h, mean ± SD; for SW480 SI (selectivity index): SI = IC50 HaCaT / IC50 SW480
Description: (§1) The human cell lines SW480 (primary colon cancer), SW620 (lymph node metastatic colon cancer from the same patient as primary cancer cells), PC3 (metastatic prostate cancer), and HaCaT (immortalized keratinocytes) were obtained from the American Type Culture Collection (ATCC, Rockville, USA). The SW480 and SW620 cells were grown in MEM (ThermoSci, USA), PC3 in RPMI 1640, and HaCaT in DMEM High Glucose (Biowest SAS, France) supplemented with 10% foetal bovine serum (FBS), HEPES (20 mM), and antibiotics (100 U mL^–1 of penicillin and 100 μg mL^–1 of streptomycin). The cells were incubated in a humidified incubator at 37 °C/5% CO2, until 80–90% confluence was reached.
(§2) The cell viability was assessed by using of MTT salt [3-(4,5-dimethylthiazol-2-yl)-2,5-diphenyltetrazolium bromide] converted by mitochondrial dehydrogenase, occurring in living cells. The cells were seeded in 96-well plates at a density of 1 × 10^4 cells per well and allowed to adhere for 24 h at 37 °C in a CO2 humidified incubator. Then, the medium was removed and a fresh medium with various concentrations of tested compounds (from 10 to 120 μM) was added. The untreated cells were used as the control.
(§3) After 72 h incubation, the medium was replaced with 200 μL per well of free serum medium containing 0.5 mg mL^–1 MTT and incubated for 4 h at 37 °C in a CO2 humidified incubator. Subsequently, the medium was removed and dimethyl sulfoxide with isopropanol (1:1) was added to dissolve the formazan crystals. The optical density was measured using a UVM 340 reader (ASYS Hitech GmbH, Austria) at a wavelength of 570 nm. The experiments were repeated three times. The cell viability was calculated as the percent of MTT reduced in treated cells versus control cells (untreated cells). The number of viable cells cultured without tested compounds was assumed as 100%. The decreased relative MTT level indicates decreased cell viability. The IC50 values were estimated using CompuSyn version 1.0.

IL-6 in PC3 cells = assay: Interleukin-6 assay (ELISA) in PC3; format: cell-based, human; details: IC50 concentration, 72 h, ELISA of culture supernatant, p ≤ 0.001
Description: (§4) The level of interleukin-6 (IL-6) in SW480, SW620, and PC3 cell lines was measured by commercial human IL-6 ELISA kits Diaclon SAS (Besancon Cedex, France). […] The untreated cells were used as the control. The IL-6 level in a cell culture supernatant was measured using an enzyme-linked immunosorbent assay, in accordance with the manufacturer’s instruction. The experiment was repeated three times.

[2] = system: SW620, human metastatic colon cancer cell line; assay: MTT assay, cytotoxicity in SW620; format: cell-based; details: for IC50: Homo sapiens, SW-620, MTT, 72 h, mean ± SD; for SW620 SI (selectivity index): SI = IC50 HaCaT / IC50 SW620
Description: as §1, §2, §3

PC3 cells = assay: Annexin V-FITC/PI binding assay (flow cytometry) in PC3; format: cell-based, human; details: IC50 concentration, 72 h
Description: (§5) The SW480, SW620, PC3, and HaCaT cells were cultured and harvested under the conditions mentioned in the Section 4.5 and seeded in 12-well plates (1 × 10^5 cells per well). […] The apoptotic effect was performed using the Annexin V-FITC/propidium iodide (PI) apoptosis assay kit (Becton Dickinson, Pharmingen), according to the manufacturer’s instructions, and analyzed by flow cytometry (Becton Dickinson). The cells which were Annexin V-FITC-positive and PI-negative were identified as early apoptotic and both Annexin V-FITC- and PI-positive as late apoptotic or necrotic. The experiment was repeated three times.

SW480 cells = assay: Annexin V-FITC/PI binding assay (flow cytometry) in SW480; format: cell-based, human; details: IC50 concentration, 72 h
Description: as §5

[3] = system: PC3, human prostate cancer cell line; assay: MTT assay, cytotoxicity in PC3; format: cell-based; details: for IC50: Homo sapiens, MTT, 72 h, mean ± SD; for PC3 SI (selectivity index): SI = IC50 HaCaT / IC50 PC3
Description: as §1, §2, §3

[4] = system: HaCaT, human immortalized keratinocyte cell line; assay: MTT assay, cytotoxicity in HaCaT; format: cell-based; details: Homo sapiens, HaCaT, 72 h, mean ± SD, nontumor cells
Description: as §1, §2, §3

[5] = system: ROS production in PC3, SW480, SW620 cells; assay: ROS detection, DCFH-DA and DHR-123 assay, cancer cell lines; format: cell-based, human; details: IC50 concentration; DCF and rhodamine fluorescence intensity
Description: (§6) ROS generation was assessed by the spectrofluorometric method using the 2′,7′-dichlorodihydrofluorescein diacetate (DCFH-DA) or dihydrorhodamine 123 (DHR-123). The method is based on the ROS-dependent oxidation of the compounds to fluorescent dichlorofluorescein (DCF) or rhodamine-123, respectively.[61] PC3, SW480, SW620, and HaCaT were seeded on to 96-well plates (5 × 10^4 cells per well) and allowed to adhere for 24 h. Then, cells were rinsed with PBS and incubated with DCFH-DA (5 μM) or DHR-123 (1 μM) for 30 min at 37 °C in the dark. […] A sample with H2O2 (1.5 mM) was a positive control, and a sample without any reagent was a negative control. Maximum excitation and emission spectra for DCF were 492 and 527 nm, and those for rhodamine-123 were 500 and 536 nm, respectively. The generation of H2O2 was measured by Microplate Spectrofluorometer BioTek Synergy (BioTek Instruments, USA) and expressed as fluorescence intensity (FI). Values from three experiments performed in triplicate were analyzed.

HaCaT cells = assay: Annexin V-FITC/PI binding assay (flow cytometry) in HaCaT; format: cell-based, human; details: IC50 concentration, 72 h; span stated for compounds 12 and 13 together
Description: as §5

IL-6 in SW480 cells = assay: Interleukin-6 assay (ELISA) in SW480; format: cell-based, human; details: IC50 concentration, 72 h, ELISA of culture supernatant
Description: as §4

IL-6 in SW620 cells = assay: Interleukin-6 assay (ELISA) in SW620; format: cell-based, human; details: IC50 concentration, 72 h, ELISA of culture supernatant
Description: as §4

SW620 cells = assay: Annexin V-FITC/PI binding assay (flow cytometry) in SW620; format: cell-based, human; details: IC50 concentration, 72 h
Description: as §5

[6] = system: ROS production in HaCaT cells; assay: ROS detection, DCFH-DA and DHR-123 assay, HaCaT; format: cell-based, human; details: IC50 concentration; for ROS level in HaCaT cells (in words): DCF and rhodamine fluorescence intensity; for time of treatment at which the amount of ROS in HaCaT cells was highest: measured after 1, 4, 12, 24 h
Description: as §6

## CC[C@@H](C(=O)[C@@H](C)[C@@H](O)[C@H](C)CCc1ccc(C)c(O)c1C(=O)OCc1cc(=O)c(O)co1)[C@H]1O[C@](CC)([C@H]2CC[C@](O)(CC)[C@H](C)O2)C[C@@H]1C [Compound 7, LAS–Kojic Acid Conjugate]
[1]
  IC50: 7.8 ± 0.09 µM
  SW480 SI (selectivity index): 0.8
IL-6 in PC3 cells
  inhibition of IL-6 release in PC3 cells, fold more effectively compared to control: ~1.2 fold
[2]
  IC50: 9.9 ± 0.08 µM
  SW620 SI (selectivity index): 0.6
PC3 cells
  percentage of late apoptotic PC3 cells: 28.24%
  percentage of necrotic PC3 cells: 26.00%
SW480 cells
  percentage of necrotic SW480 cells: 22.39%
[3]
  IC50: 3.8 ± 0.07 µM
  PC3 SI (selectivity index): 1.7
[4]
  IC50: 6.3 ± 0.1 µM

## CC[C@@H](C(=O)[C@@H](C)[C@@H](O)[C@H](C)CCc1ccc(C)c(O)c1C(=O)OC[C@H]1O[C@@H](n2ccc(N)nc2=O)C(F)(F)[C@@H]1O)[C@H]1O[C@](CC)([C@H]2CC[C@](O)(CC)[C@H](C)O2)C[C@@H]1C [Compound 12, LAS–Gemcitabine Conjugate]
[1]
  IC50: 12 ± 0.86 µM
  SW480 SI (selectivity index): 1.2
[5]
  ROS level in cancer cell lines (in words): significantly higher level of ROS
[2]
  IC50: 3.6 ± 1.1 µM
  SW620 SI (selectivity index): 3.9
PC3 cells
  percentage of late apoptotic PC3 cells: 39.92%
  percentage of necrotic PC3 cells: 40.31%
HaCaT cells
  late apoptosis in HaCaT cells: 57.26 to 72.01%
IL-6 in SW480 cells
  decrease of IL-6 concentration in SW480 cells compared to the control: ~1.0 time
IL-6 in SW620 cells
  decrease of IL-6 concentration in SW620 cells compared to the control: ~1.3 time
SW620 cells
  early apoptosis in SW620 cells: 14.53%
  late apoptosis in SW620 cells: 14.79%
SW480 cells
  percentage of necrotic SW480 cells: 42.85%
[3]
  IC50: 1.6 ± 1.2 µM
  PC3 SI (selectivity index): 8.8
[6]
  ROS level in HaCaT cells (in words): slightly elevated level of ROS
  time of treatment at which the amount of ROS in HaCaT cells was highest: 4 h
[4]
  IC50: 14 ± 0.22 µM

## CC[C@@H](C(=O)[C@@H](C)[C@@H](O)[C@H](C)CCc1ccc(C)c(O)c1C(=O)OCCC[P+](c1ccccc1)(c1ccccc1)c1ccccc1)[C@H]1O[C@](CC)([C@H]2CC[C@](O)(CC)[C@H](C)O2)C[C@@H]1C [Compound 13, LAS–TPP Conjugate]
[1]
  IC50: 1.4 ± 1.5 µM
  SW480 SI (selectivity index): 2.3
[5]
  ROS level in cancer cell lines (in words): significantly higher level of ROS
[2]
  IC50: 2.3 ± 2.2 µM
  SW620 SI (selectivity index): 1.4
PC3 cells
  percentage of necrotic PC3 cells: 56.81%
HaCaT cells
  late apoptosis in HaCaT cells: 57.26 to 72.01%
SW480 cells
  percentage of late apoptotic SW480 cells: 20.15%
  percentage of necrotic SW480 cells: 24.82%
[3]
  IC50: 1.8 ± 0.09 µM
  PC3 SI (selectivity index): 1.8
[6]
  ROS level in HaCaT cells (in words): significantly higher level of ROS
  time of treatment at which the amount of ROS in HaCaT cells was highest: 12 h
[4]
  IC50: 3.2 ± 0.12 µM
